Laboratory results taken from ChEMBL document CHEMBL1130648, “The synthesis of a new type of anthracene DNA intercalator” (Bioorg Med Chem Lett, 1998).

System: Nucleic Acid
Experiment: Compound was tested for binding affinity against CT DNA.
Format: nucleic-acid assay
Settings: Bos taurus

Binding affinity	Structure (SMILES)
10000 M⁻¹	NCc1c2ccccc2cc2ccccc12
40000 M⁻¹	COc1cc2c(CCCN)c3cc(OC)c(OC)cc3c(CCCN)c2cc1OC
